Laboratory results published in patent US11767310B2, “Nicotinamide RIPK1 inhibitors” (AbbVie Inc., priority 2021, dated 2023).
Like-named read-outs stand apart in the source and are kept apart here.

Legend:
[1] = test system: non-mutant kinases; experiment: Selectivity score (S-score) from kinase binding screen; set-up: species or system human; settings: Screening Concentration 100 nM; 403 non-mutant kinases
Method: Based on the binding affinities in Table D, a selectivity score (S-score) was calculated for each compound as a quantitative measure of compound selectivity. The S-score is calculated by dividing the number of kinases that a compound binds to by the total number of distinct kinases tested, excluding mutant variants. The selectivity score value can be calculated using % Ctrl as a potency threshold, as shown below, and provides a quantitative method of describing compound selectivity to facilitate comparison of different compounds.
S(10)=(number of non-mutant kinases with % Ctrl<[…])/(number of non-mutant kinases tested).
[…]=(number of non-mutant kinases with % Ctrl<[…])/(number of non-mutant kinases tested).
[…]=(number of non-mutant kinases with % Ctrl<1)/(number of non-mutant kinases tested).

[2] = target: AAK1 (Homo sapiens (Human), UniProt Q2M2I8); experiment: Kinase binding screen; settings: read-out: Percent Control at 100 nM Compound Concentration
[3] = target: ABL1(F317I)-phosphorylated (Homo sapiens (Human), UniProt P00519, F317I); experiment: Kinase binding screen; settings: read-out: Percent Control at 100 nM Compound Concentration
[4] = target: ABL1(Q252H)-phosphorylated (Homo sapiens (Human), UniProt P00519, Q252H); experiment: Kinase binding screen; settings: read-out: Percent Control at 100 nM Compound Concentration
[5] = target: ALK (Homo sapiens (Human), UniProt Q9UM73); experiment: Kinase binding screen; settings: read-out: Percent Control at 100 nM Compound Concentration
[6] = target: BRAF (Homo sapiens (Human), UniProt P15056); experiment: Kinase binding screen; settings: read-out: Percent Control at 100 nM Compound Concentration
[7] = target: BRK (Homo sapiens (Human), UniProt Q13882); experiment: Kinase binding screen; settings: read-out: Percent Control at 100 nM Compound Concentration
Chain of BRK (Q13882 whole entry): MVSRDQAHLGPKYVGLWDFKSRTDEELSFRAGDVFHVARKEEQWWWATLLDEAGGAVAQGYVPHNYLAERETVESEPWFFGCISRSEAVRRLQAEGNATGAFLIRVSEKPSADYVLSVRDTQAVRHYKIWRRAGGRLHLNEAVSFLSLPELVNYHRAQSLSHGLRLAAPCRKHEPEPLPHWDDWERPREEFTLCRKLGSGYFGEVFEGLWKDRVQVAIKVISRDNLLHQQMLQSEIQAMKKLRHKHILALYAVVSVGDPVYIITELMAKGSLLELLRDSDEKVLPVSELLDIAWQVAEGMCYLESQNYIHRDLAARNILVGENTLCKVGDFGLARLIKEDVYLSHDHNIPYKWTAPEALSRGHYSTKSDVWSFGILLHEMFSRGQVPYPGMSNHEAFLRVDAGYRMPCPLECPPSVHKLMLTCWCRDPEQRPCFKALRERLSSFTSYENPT

[8] = target: BRSK1 (Homo sapiens (Human), UniProt Q8TDC3); experiment: Kinase binding screen; settings: read-out: Percent Control at 100 nM Compound Concentration
[9] = target: BTK (Homo sapiens (Human), UniProt Q06187); experiment: Kinase binding screen; settings: read-out: Percent Control at 100 nM Compound Concentration
[10] = target: CDK11 (Homo sapiens (Human), UniProt Q9BWU1); experiment: Kinase binding screen; settings: read-out: Percent Control at 100 nM Compound Concentration
[11] = target: CDKL3 (Homo sapiens (Human), UniProt Q8IVW4); experiment: Kinase binding screen; settings: read-out: Percent Control at 100 nM Compound Concentration
Chain of CDKL3 (Q8IVW4 whole entry): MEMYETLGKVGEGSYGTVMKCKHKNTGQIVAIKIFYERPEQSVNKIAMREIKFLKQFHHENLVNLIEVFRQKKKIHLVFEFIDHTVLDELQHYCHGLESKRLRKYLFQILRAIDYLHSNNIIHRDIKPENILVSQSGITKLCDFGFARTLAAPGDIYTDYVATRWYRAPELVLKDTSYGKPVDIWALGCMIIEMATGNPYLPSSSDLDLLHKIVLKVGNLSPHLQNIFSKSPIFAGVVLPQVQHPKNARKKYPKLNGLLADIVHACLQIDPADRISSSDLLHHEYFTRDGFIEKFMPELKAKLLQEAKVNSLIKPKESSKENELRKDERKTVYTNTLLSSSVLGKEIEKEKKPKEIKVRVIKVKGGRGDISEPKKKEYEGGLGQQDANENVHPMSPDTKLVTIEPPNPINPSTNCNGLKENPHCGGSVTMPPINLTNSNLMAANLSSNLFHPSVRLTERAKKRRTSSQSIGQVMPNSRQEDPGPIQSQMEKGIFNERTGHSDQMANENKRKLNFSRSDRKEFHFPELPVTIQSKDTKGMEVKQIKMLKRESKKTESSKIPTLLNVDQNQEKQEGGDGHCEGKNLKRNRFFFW

[12] = target: CLK4 (Homo sapiens (Human), UniProt Q9HAZ1); experiment: Kinase binding screen; settings: read-out: Percent Control at 100 nM Compound Concentration
[13] = target: EGFR(L861Q) (Homo sapiens (Human), UniProt P00533, L861Q); experiment: Kinase binding screen; settings: read-out: Percent Control at 100 nM Compound Concentration
[14] = target: ERN1 (Homo sapiens (Human), UniProt O75460); experiment: Kinase binding screen; settings: read-out: Percent Control at 100 nM Compound Concentration
[15] = target: HIPK1 (Homo sapiens (Human), UniProt Q86Z02); experiment: Kinase binding screen; settings: read-out: Percent Control at 100 nM Compound Concentration
[16] = target: ICK (Homo sapiens (Human), UniProt Q9UPZ9); experiment: Kinase binding screen; settings: read-out: Percent Control at 100 nM Compound Concentration
[17] = target: MAP3K1 (Homo sapiens (Human), UniProt Q13233); experiment: Kinase binding screen; settings: read-out: Percent Control at 100 nM Compound Concentration
Chain of MAP3K1 (Q13233 whole entry): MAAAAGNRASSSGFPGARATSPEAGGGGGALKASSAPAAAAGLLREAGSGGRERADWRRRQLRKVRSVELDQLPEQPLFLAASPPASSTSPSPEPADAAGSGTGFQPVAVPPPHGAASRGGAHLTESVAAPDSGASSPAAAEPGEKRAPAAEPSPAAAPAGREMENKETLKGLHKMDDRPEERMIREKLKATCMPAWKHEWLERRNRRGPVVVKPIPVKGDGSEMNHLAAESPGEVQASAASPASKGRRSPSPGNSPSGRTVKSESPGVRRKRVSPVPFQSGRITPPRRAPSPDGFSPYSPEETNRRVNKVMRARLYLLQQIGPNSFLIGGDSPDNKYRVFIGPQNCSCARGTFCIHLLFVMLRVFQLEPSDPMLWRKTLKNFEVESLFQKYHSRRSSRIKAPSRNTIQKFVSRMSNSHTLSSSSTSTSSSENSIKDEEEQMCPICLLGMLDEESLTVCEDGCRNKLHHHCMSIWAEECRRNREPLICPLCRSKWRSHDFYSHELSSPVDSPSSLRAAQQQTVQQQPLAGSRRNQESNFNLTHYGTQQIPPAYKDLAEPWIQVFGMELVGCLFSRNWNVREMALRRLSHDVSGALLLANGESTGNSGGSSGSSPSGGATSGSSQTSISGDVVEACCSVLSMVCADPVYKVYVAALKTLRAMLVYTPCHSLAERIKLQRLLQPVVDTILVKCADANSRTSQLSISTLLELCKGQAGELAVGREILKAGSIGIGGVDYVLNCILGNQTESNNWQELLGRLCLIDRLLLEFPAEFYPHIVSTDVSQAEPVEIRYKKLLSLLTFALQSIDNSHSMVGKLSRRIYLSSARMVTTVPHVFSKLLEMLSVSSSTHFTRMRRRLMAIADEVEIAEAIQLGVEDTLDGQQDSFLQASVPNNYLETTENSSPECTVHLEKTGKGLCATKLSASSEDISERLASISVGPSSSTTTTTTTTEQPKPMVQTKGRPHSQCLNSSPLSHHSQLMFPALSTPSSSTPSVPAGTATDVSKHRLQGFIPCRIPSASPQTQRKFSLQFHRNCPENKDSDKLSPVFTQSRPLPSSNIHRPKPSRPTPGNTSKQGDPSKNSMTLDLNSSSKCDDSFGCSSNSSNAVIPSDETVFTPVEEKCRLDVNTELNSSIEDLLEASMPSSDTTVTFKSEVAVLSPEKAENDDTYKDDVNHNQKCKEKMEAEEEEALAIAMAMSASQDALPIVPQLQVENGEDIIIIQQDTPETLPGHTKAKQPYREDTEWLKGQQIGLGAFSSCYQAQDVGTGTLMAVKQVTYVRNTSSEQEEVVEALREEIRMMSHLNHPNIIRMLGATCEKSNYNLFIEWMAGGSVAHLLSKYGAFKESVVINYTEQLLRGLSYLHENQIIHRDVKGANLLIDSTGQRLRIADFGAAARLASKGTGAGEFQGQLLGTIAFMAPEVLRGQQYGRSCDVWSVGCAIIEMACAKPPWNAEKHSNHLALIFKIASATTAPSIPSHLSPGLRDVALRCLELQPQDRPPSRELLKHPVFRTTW

[18] = target: MAP3K2 (Homo sapiens (Human), UniProt Q9Y2U5); experiment: Kinase binding screen; settings: read-out: Percent Control at 100 nM Compound Concentration
[19] = target: MRCKA (Homo sapiens (Human), UniProt Q5VT25); experiment: Kinase binding screen; settings: read-out: Percent Control at 100 nM Compound Concentration
[20] = target: MST2 (Homo sapiens (Human), UniProt Q13188); experiment: Kinase binding screen; settings: read-out: Percent Control at 100 nM Compound Concentration
Chain of MST2 (Q13188 whole entry): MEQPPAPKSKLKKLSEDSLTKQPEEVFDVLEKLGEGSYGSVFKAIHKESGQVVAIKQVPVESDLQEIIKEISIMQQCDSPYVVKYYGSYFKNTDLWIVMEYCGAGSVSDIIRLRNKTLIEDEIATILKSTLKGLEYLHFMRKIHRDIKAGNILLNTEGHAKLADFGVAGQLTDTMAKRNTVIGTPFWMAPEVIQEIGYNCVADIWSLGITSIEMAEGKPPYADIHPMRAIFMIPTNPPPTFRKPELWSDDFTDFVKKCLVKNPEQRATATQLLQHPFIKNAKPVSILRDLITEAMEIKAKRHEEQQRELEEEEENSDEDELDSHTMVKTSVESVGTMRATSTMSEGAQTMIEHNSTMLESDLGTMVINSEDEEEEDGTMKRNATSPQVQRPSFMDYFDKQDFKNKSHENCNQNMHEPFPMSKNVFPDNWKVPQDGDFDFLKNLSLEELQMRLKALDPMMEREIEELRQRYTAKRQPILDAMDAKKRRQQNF

[21] = target: MST4 (Homo sapiens (Human), UniProt Q9P289); experiment: Kinase binding screen; settings: read-out: Percent Control at 100 nM Compound Concentration
Chain of MST4 (Q9P289 whole entry): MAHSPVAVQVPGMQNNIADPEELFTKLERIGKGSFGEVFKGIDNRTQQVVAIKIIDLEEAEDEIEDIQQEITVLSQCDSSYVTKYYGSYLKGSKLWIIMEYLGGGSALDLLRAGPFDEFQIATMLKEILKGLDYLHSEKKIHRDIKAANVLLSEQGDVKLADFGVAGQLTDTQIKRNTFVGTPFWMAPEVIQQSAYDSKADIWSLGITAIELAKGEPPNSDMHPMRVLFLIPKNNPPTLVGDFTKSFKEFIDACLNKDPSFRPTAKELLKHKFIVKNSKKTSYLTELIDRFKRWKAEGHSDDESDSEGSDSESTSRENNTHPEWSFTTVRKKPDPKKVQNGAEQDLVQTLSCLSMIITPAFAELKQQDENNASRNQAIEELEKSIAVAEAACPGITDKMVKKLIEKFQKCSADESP

[22] = target: PIK3CA(H1047L) (Homo sapiens (Human), UniProt P42336, H1047L); experiment: Kinase binding screen; settings: read-out: Percent Control at 100 nM Compound Concentration
[23] = target: PRKCI (Homo sapiens (Human), UniProt P41743); experiment: Kinase binding screen; settings: read-out: Percent Control at 100 nM Compound Concentration
Chain of PRKCI (P41743 whole entry): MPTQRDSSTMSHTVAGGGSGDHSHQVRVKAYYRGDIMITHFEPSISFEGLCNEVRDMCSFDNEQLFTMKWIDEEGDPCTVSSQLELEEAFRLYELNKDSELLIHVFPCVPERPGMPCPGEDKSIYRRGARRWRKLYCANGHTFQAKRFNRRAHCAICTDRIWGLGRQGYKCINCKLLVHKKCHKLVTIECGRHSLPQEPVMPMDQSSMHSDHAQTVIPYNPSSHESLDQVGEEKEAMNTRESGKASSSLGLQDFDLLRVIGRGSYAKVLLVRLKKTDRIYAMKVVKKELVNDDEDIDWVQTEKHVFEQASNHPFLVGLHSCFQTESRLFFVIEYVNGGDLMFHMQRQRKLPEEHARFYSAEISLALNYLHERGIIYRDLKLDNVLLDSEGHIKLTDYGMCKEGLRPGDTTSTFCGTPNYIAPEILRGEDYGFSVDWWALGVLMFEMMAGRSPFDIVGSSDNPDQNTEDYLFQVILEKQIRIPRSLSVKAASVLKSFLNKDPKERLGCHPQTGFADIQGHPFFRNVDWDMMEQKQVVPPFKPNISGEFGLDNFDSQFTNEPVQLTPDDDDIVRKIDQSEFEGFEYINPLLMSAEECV

[24] = target: RSK2(Kin.Dom.2-C-terminal) (Homo sapiens (Human), UniProt P51812); experiment: Kinase binding screen; settings: read-out: Percent Control at 100 nM Compound Concentration
Chain of RSK2(Kin.Dom.2-C-terminal) (P51812 422-679): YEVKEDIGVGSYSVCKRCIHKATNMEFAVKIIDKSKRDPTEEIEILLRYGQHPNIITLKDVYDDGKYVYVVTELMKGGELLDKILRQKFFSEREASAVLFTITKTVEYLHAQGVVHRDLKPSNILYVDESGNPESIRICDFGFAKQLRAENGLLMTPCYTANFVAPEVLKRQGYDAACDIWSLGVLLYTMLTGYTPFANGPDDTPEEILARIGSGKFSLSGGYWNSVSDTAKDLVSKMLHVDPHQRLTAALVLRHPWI

[25] = target: WNK2 (Homo sapiens (Human), UniProt Q9Y3S1); experiment: Kinase binding screen; settings: read-out: Percent Control at 100 nM Compound Concentration
[26] = target: ZAP70 (Homo sapiens (Human), UniProt P43403); experiment: Kinase binding screen; settings: read-out: Percent Control at 100 nM Compound Concentration
Chain of ZAP70 (P43403 whole entry): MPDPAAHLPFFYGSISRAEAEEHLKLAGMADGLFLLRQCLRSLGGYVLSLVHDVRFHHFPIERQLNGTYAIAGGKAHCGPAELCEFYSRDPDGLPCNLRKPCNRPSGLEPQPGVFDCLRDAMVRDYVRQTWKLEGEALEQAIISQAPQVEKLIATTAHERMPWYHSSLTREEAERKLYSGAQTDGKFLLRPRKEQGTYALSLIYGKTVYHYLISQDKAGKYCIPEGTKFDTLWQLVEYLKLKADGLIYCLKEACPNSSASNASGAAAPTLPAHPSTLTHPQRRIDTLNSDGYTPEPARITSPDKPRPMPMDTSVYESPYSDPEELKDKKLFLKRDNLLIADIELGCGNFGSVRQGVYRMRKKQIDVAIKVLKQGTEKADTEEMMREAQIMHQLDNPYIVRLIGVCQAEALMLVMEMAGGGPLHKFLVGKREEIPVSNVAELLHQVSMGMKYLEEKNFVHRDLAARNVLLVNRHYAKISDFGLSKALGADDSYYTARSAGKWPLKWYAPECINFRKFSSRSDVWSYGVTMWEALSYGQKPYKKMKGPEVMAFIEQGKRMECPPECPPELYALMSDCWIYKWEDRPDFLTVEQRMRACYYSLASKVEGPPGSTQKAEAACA

CN(C[C@@H](O)Cc1ccccc1)C(=O)c1cncc(C#Cc2cnn(C(F)F)c2)c1 [Example 2, (S)-5-((1-(difluoromethyl)-1H-pyrazol-4-yl)ethynyl)-N-(2-hydroxy-3-phenylpropyl)-N-methylnicotinamide]
Number of Hits S(1) [1]: 0
Number of Hits S(10) [1]: 1
Number of Hits S(35) [1]: 3
Selectivity Score S(10) [1]: 0.002
Selectivity Score S(35) [1]: 0.007
remaining activity at 0.1 µM ([2]; AAK1): 96%
remaining activity at 0.1 µM ([3]; ABL1(F317I)-phosphorylated): 100%
remaining activity at 0.1 µM ([4]; ABL1(Q252H)-phosphorylated): 99%
remaining activity at 0.1 µM ([5]; ALK): 100%
remaining activity at 0.1 µM ([6]; BRAF): 100%
remaining activity at 0.1 µM ([7]; BRK): 100%
remaining activity at 0.1 µM ([8]; BRSK1): 99%
remaining activity at 0.1 µM ([9]; BTK): 100%
remaining activity at 0.1 µM ([10]; CDK11): 4.8%
remaining activity at 0.1 µM ([11]; CDKL3): 100%
remaining activity at 0.1 µM ([12]; CLK4): 92%
remaining activity at 0.1 µM ([13]; EGFR(L861Q)): 100%
remaining activity at 0.1 µM ([14]; ERN1): 100%
remaining activity at 0.1 µM ([15]; HIPK1): 72%
remaining activity at 0.1 µM ([16]; ICK): 100%
remaining activity at 0.1 µM ([17]; MAP3K1): 100%
remaining activity at 0.1 µM ([18]; MAP3K2): 99%
remaining activity at 0.1 µM ([19]; MRCKA): 100%
remaining activity at 0.1 µM ([20]; MST2): 100%
remaining activity at 0.1 µM ([21]; MST4): 97%
remaining activity at 0.1 µM ([22]; PIK3CA(H1047L)): 85%
remaining activity at 0.1 µM ([23]; PRKCI): 96%
remaining activity at 0.1 µM ([24]; RSK2(Kin.Dom.2-C-terminal)): 100%
remaining activity at 0.1 µM ([25]; WNK2): 100%
remaining activity at 0.1 µM ([26]; ZAP70): 98%

CN(C[C@H](Cc1ccccc1)OP(=O)(O)O)C(=O)c1cncc(C#Cc2cnn(C(F)F)c2)c1 [Example 19, (S)-1-(5-((1-(difluoromethyl)-1H-pyrazol-4-yl)ethynyl)-N-methylnicotinamido)-3-phenylpropan-2-yl dihydrogen phosphate]
Number of Hits S(1) [1]: 0
Number of Hits S(10) [1]: 0
Number of Hits S(35) [1]: 0
remaining activity at 0.1 µM [2]: 100%
remaining activity at 0.1 µM [3]: 98%
remaining activity at 0.1 µM [4]: 99%
remaining activity at 0.1 µM [5]: 100%
remaining activity at 0.1 µM [6]: 100%
remaining activity at 0.1 µM [7]: 100%
remaining activity at 0.1 µM [8]: 99%
remaining activity at 0.1 µM [9]: 96%
remaining activity at 0.1 µM [10]: 92%
remaining activity at 0.1 µM [11]: 97%
remaining activity at 0.1 µM [12]: 100%
remaining activity at 0.1 µM [13]: 86%
remaining activity at 0.1 µM [14]: 93%
remaining activity at 0.1 µM [15]: 82%
remaining activity at 0.1 µM [16]: 93%
remaining activity at 0.1 µM [17]: 100%
remaining activity at 0.1 µM [18]: 95%
remaining activity at 0.1 µM [19]: 100%
remaining activity at 0.1 µM [20]: 99%
remaining activity at 0.1 µM [21]: 84%
remaining activity at 0.1 µM [22]: 71%
remaining activity at 0.1 µM [23]: 92%
remaining activity at 0.1 µM [24]: 100%
remaining activity at 0.1 µM [25]: 100%
remaining activity at 0.1 µM [26]: 98%
